According to US10351539B2, “Macrocyclic complexes, their process of preparation and use as PET imaging agents” (INSTITUT NATIONAL DE LA SANTE ET DE LA RECHERCHE MEDICALE …, priority 2014, dated 2019):

Test: Biodistribution in healthy and SRC bearing rats at 1 h after i.v. injection of radiolabelled compounds
Type: in vivo
Conditions: mean ± SD (n = 3); for Articular Cartilage / Bladder / Blood / Kidney / Muscle / Liver: healthy and SRC bearing rats; for Liver: ND: at undetectable levels; for Tumor: SRC (Swarm Rat Chondrosarcoma) bearing rats
Experimental: Quantitative biodistribution of radiolabelled compounds was determined in rats: healthy animals as well as rats with primary grade II orthotopic chondrosarcoma at stage Day-30 after induction. The chondrosarcoma model was the Swarm Rat Chondrosarcoma model (SRC) implanted in paratibial location. Radiolabelled compounds (5-10 Mbq/animal) were i.v. administered in the caudal vein of animals being anesthetized of mixture of ketamine (58 mg/kg i.p.) (Imalgéne 500®) and xylazine (6 mg/kg i.p.) (Rompun® 2%, Bayer, France). One hour after injection, animals were then sacrificed by CO2 inhalation, dissected and organs of interest removed, weighed and their radioactivity counted using a gamma counter (Model 1480 Wizard, Perkin Elmer Life Sciences, Boston, USA). Organs collected were blood, muscle, knee, kidneys, liver, thoracic ribs, bladder for both healthy and chondrosarcoma bearing rats. For SRC animals, tumour was also sampled. After radioactive decay correction, results were expressed for each organ as % injected dose per gram (% ID/g) and averaged per group.

Row | SMILES | Articular Cartilage | Bladder | Blood | Kidney | Muscle | Liver | Tumor
1 | CC[N+](CC)(CC)CCCN1CCCN2CCN(CCCN(CC(=O)O)CC1)CC2.[64Cu+2] [^64Cu-14, [^64Cu]-3-(8-(Carboxymethyl)-1,5,8,12-tetraazabicyclo[10.2.2]hexadecan-5-yl)-N,N,N-triethylpropan-1-aminium copper(II)] | 0.11 ± 0.02 % ID/g | 14.71 % ID/g | 0.09 ± 0.04 % ID/g | 0.73 ± 0.22 % ID/g | 0.04 ± 0.00 % ID/g | 0.06 ± 0.02 % ID/g | –
2 | CC[N+](CC)(CC)CCCN1CCCN2CCN(CCCN(CC(=O)OC(C)(C)C)CC1)CC2.[64Cu+2] [^64Cu-13, [^64Cu]-3-(8-(2-tert-Butoxy-2-oxoethyl)-1,5,8,12-tetraazabicyclo[10.2.2]hexadecan-5-yl)-N,N,N-triethylpropan-1-aminium copper(II)] | 0.16 ± 0.06 % ID/g | 11.83 % ID/g | 0.07 ± 0.01 % ID/g | 1.06 ± 0.66 % ID/g | 0.03 ± 0.01 % ID/g | 0.06 ± 0.01 % ID/g | –
3 | CC[N+](CC)(CC)CCCN1CCCN(Cc2ccccn2)CCNCCCN(Cc2ccccn2)CC1.[64Cu+2] [^64Cu-30, [^64Cu]-3-(4,11-Bis(pyridin-2-ylmethyl)-1,4,8,11-tetraazacyclotetradecan-1-yl)-N,N,N-triethylpropan-1-aminium copper(II)] | 2.7 ± 0.4 % ID/g | 25.2 ± 10.6 % ID/g | 0.7 ± 0.2 % ID/g | 9.2 ± 0.9 % ID/g | 0.80 ± 0.4 % ID/g | – | 4.2 ± 0.6 % ID/g
4 | CC[N+](CC)(CC)CCCN1CCCNCCN(Cc2ccccn2)CCCNCC1.[64Cu+2] [^64Cu-27, [^64Cu]—N,N,N-Triethyl-3-(8-(pyridin-2-ylmethyl)-1,4,8,11-tetraazacyclotetradecan-1-yl)propan-1-aminium copper(II)] | 1.5 ± 0.4 % ID/g | 30.5 ± 10.9 % ID/g | 0.4 ± 0.07 % ID/g | 7.6 ± 4.6 % ID/g | 0.43 ± 0.15 % ID/g | 1.2 ± 0.4 % ID/g | 1.4 ± 0.07 % ID/g
